According to ChEMBL document CHEMBL1129849, “Synthesis and evaluation of delta lactams as nonpeptide HIV-protease inhibitors” (Bioorg Med Chem Lett, 1997):

Each compound was assayed against Human immunodeficiency virus type 1 protease (Human immunodeficiency virus 1, UniProt Q72874) (assay: Compound was tested for the inhibitory activity against HIV-protease).

| Structure (SMILES) | Ki |
| --- | --- |
| O=C1N(Cc2ccccc2)C[C@H](O)[C@@H](Cc2ccccc2)N1Cc1ccccc1 | 11 µM |
| O=C1N[C@H](CCc2ccccc2)[C@@H](O)[C@@H](Cc2ccccc2)N1Cc1ccccc1 | 0.066 µM |
| O=C1[C@@H](Cc2ccccc2)C[C@@H](O)[C@@H](Cc2ccccc2)N1Cc1ccccc1 | 9.4 µM |
| O=C1N(Cc2ccccc2)C[C@@H](O)[C@@H](Cc2ccccc2)N1Cc1ccccc1 | 0.0025 µM |
